Measured values: article PMC9851200, “Multiparameter phenotypic screening for endogenous TFEB and TFE3 translocation identifies novel chemical series modulating lysosome function” (Autophagy, 2022)
Like-named read-outs stand apart in the source and are kept apart here.

Columns and labels:
Type in all cases: binding
ACVR1B = molecular target: T1, ACVR1B (Homo sapiens, UniProt P36896); assay: KINOMEscan ACVR1B
T1 sequence (P36896 24-505): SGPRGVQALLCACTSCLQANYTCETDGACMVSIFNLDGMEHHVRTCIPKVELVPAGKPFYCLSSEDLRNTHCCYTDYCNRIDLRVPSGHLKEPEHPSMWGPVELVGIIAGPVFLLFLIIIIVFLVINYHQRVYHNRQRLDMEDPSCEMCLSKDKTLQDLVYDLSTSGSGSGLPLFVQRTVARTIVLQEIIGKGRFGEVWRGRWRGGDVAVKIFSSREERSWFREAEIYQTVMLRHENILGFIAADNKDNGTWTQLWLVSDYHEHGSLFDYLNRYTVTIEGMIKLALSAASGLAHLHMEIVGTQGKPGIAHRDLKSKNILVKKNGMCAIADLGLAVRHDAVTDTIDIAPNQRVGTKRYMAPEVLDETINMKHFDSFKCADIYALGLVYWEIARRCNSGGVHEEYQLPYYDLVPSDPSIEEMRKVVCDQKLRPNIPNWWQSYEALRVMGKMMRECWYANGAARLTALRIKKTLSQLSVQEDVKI

[1] = molecular target: kinases (KINOMEscan panel) (Homo sapiens, UniProt Q9BWU1); conditions: kinase CDK19; NEW KINOMEscan
[2] = molecular target: kinases (KINOMEscan panel) (Homo sapiens, UniProt P00533, L858R/T790M); conditions: NEW KINOMEscan
[3] = molecular target: kinases (KINOMEscan panel) (Homo sapiens, UniProt Q00526); conditions: CDK3; NEW KINOMEscan
[4] = molecular target: kinases (KINOMEscan panel) (Homo sapiens, UniProt O60674); conditions: JAK2(JH1domain-catalytic); NEW KINOMEscan
[5] = molecular target: kinases (KINOMEscan panel) (Homo sapiens, UniProt P50750); conditions: kinase CDK9; NEW KINOMEscan
[6] = molecular target: kinases (KINOMEscan panel) (Homo sapiens, UniProt P04049); conditions: RAF1; NEW KINOMEscan
[7] = molecular target: T2, kinases (KINOMEscan panel) (Homo sapiens, UniProt P30530); conditions: AXL; NEW KINOMEscan
T2 sequence (P30530 26-894): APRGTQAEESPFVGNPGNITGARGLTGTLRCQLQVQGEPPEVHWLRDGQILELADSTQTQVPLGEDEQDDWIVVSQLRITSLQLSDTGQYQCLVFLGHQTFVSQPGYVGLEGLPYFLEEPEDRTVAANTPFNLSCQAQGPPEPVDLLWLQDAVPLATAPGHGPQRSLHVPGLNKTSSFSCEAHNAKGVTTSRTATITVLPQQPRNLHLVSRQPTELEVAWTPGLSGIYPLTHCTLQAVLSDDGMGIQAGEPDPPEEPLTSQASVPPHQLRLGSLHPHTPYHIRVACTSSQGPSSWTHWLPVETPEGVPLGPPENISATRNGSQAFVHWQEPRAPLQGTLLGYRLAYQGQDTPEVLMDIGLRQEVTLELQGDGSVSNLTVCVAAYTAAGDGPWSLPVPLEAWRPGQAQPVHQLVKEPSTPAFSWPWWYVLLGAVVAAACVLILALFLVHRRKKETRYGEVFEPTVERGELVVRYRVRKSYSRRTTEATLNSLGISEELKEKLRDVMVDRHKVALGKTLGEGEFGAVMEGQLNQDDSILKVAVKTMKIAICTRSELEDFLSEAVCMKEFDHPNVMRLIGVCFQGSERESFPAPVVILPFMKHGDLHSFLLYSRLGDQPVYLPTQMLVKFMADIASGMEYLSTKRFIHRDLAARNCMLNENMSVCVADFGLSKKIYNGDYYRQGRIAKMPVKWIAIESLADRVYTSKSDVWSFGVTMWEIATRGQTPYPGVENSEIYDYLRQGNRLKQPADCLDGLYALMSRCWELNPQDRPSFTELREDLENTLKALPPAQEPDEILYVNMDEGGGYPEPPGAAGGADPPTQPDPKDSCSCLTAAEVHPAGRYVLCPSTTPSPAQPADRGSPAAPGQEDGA

[8] = molecular target: kinases (KINOMEscan panel) (Homo sapiens, UniProt P24941); conditions: CDK2; NEW KINOMEscan
[9] = molecular target: T3, kinases (KINOMEscan panel) (Homo sapiens, UniProt Q99640); conditions: kinase PKMYT1; NEW KINOMEscan
T3 sequence (Q99640 1-499): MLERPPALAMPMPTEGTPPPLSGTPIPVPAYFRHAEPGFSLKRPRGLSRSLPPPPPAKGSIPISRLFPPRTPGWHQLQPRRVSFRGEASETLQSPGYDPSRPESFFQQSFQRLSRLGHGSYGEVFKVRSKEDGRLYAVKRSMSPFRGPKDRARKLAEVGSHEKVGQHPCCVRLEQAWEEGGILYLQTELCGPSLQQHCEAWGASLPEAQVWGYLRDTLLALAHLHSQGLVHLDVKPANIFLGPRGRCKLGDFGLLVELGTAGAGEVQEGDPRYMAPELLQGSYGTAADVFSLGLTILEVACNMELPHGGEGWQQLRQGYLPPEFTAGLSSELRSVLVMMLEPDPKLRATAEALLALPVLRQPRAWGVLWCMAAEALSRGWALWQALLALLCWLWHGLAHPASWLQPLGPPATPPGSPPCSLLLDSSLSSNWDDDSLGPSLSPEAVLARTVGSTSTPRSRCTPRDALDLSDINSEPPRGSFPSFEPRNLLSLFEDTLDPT

[10] = molecular target: kinases (KINOMEscan panel) (Homo sapiens, UniProt Q9UM73, C1156Y); conditions: kinase ALK(C1156Y); NEW KINOMEscan
[11] = molecular target: kinases (KINOMEscan panel) (Homo sapiens, UniProt P0C1S8); conditions: WEE2; NEW KINOMEscan
[12] = molecular target: kinases (KINOMEscan panel) (Homo sapiens, UniProt Q13464); conditions: ROCK1; NEW KINOMEscan
[13] = molecular target: kinases (KINOMEscan panel) (Homo sapiens, UniProt Q9Y463); conditions: kinase DYRK1B; NEW KINOMEscan
[14] = molecular target: kinases (KINOMEscan panel) (Homo sapiens, UniProt O75460); conditions: NEW KINOMEscan
Chain of kinases (KINOMEscan panel) (Homo sapiens, UniProt O75460) (O75460 19-977): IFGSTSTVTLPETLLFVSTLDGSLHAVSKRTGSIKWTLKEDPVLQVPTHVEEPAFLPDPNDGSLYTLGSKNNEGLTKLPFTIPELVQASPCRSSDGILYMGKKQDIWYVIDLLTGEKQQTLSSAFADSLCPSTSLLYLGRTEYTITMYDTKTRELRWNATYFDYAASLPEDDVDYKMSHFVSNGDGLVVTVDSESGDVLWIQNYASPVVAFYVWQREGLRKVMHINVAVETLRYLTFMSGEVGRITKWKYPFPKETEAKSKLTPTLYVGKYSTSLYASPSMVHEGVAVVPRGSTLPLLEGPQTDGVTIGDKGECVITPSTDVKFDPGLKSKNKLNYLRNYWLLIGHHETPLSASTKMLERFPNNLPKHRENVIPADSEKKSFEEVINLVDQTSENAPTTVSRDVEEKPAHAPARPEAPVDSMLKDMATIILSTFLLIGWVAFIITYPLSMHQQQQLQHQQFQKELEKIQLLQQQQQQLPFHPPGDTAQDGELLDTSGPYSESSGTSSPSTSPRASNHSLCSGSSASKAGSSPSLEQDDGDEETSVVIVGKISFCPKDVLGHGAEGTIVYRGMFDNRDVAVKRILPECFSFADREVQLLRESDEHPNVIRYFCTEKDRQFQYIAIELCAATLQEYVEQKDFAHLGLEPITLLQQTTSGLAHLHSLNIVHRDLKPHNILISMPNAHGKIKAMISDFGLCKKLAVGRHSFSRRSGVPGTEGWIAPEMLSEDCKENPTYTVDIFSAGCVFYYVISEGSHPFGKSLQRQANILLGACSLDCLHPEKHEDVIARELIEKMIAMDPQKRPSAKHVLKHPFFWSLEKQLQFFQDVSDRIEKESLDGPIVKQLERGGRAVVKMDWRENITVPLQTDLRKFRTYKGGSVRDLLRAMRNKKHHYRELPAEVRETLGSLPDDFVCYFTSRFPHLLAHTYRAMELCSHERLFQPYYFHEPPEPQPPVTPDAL

Chain of kinases (KINOMEscan panel) (Homo sapiens, UniProt P04049) (P04049 whole entry): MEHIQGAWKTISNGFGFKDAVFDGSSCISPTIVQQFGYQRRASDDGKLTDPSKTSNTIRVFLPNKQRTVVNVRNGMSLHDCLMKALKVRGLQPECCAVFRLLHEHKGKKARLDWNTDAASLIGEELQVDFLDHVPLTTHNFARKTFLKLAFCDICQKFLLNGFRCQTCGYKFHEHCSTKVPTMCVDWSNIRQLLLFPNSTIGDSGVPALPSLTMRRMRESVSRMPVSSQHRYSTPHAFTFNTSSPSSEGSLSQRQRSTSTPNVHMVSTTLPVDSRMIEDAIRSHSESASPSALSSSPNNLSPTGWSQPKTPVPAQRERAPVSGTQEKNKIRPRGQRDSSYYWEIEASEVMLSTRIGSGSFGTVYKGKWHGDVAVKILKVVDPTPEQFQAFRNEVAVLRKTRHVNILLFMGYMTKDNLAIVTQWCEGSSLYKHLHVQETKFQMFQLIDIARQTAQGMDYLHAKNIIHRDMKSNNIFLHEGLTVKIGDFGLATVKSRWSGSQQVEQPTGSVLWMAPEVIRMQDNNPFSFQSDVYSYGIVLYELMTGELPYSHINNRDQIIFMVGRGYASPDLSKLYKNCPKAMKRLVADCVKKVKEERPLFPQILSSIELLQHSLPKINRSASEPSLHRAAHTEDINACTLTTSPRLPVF
Chain of kinases (KINOMEscan panel) (Homo sapiens, UniProt Q00526) (Q00526 whole entry): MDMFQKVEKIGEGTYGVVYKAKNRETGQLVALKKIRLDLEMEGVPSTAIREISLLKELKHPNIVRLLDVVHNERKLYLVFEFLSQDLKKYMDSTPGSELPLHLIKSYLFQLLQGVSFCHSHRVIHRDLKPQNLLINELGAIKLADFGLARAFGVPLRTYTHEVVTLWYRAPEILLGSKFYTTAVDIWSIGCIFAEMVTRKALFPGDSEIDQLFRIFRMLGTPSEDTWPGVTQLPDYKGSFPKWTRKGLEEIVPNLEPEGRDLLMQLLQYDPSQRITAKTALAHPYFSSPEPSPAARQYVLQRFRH
Chain of kinases (KINOMEscan panel) (Homo sapiens, UniProt Q9Y463) (Q9Y463 whole entry): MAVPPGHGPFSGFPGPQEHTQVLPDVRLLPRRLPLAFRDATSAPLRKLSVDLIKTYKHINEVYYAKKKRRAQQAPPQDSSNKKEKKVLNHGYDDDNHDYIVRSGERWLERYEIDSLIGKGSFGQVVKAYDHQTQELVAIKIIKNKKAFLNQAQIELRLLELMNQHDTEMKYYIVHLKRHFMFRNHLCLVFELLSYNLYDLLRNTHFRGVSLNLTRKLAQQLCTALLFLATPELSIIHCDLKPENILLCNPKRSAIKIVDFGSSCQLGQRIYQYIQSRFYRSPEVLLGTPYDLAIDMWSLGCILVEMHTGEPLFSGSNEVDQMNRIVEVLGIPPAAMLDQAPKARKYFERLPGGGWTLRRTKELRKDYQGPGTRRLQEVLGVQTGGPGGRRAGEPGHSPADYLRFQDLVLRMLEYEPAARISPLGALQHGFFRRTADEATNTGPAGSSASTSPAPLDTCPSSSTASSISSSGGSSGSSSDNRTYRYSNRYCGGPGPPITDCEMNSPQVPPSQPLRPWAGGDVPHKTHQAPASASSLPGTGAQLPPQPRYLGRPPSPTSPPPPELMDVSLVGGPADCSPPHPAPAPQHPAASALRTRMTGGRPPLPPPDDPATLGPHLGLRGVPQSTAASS
Chain of kinases (KINOMEscan panel) (Homo sapiens, UniProt Q13464) (Q13464 whole entry): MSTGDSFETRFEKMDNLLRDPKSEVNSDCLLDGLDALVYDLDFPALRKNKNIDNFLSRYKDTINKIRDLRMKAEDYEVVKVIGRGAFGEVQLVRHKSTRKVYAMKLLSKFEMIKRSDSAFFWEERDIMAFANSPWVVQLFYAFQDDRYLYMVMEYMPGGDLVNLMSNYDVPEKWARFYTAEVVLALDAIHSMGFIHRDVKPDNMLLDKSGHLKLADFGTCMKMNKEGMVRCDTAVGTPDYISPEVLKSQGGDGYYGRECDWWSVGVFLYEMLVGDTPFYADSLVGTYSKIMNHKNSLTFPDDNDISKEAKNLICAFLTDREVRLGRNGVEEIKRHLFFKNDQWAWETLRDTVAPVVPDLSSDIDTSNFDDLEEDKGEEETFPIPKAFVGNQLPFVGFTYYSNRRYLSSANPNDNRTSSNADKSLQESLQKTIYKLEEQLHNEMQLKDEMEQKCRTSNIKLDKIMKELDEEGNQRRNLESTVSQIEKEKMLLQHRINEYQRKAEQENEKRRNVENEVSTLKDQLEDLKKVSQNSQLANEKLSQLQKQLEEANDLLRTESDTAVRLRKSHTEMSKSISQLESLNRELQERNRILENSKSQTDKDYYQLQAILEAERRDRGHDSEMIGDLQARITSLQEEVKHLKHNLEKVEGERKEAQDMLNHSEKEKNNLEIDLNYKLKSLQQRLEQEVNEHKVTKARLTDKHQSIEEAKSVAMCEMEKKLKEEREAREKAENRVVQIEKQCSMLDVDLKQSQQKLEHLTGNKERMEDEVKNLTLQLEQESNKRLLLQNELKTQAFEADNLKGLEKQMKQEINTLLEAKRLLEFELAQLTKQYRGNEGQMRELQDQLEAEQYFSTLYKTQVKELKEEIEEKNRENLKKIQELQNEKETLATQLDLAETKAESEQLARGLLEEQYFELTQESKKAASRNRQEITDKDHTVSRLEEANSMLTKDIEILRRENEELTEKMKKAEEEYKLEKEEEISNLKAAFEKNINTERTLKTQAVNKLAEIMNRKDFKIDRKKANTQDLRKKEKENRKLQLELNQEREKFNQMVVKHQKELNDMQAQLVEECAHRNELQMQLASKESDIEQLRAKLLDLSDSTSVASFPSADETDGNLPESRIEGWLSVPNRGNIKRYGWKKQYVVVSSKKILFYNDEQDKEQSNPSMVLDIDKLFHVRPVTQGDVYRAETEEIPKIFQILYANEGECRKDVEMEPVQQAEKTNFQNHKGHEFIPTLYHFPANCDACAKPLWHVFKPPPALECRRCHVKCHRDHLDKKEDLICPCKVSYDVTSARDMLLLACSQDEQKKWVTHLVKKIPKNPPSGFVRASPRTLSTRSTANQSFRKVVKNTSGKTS
Chain of kinases (KINOMEscan panel) (Homo sapiens, UniProt Q9BWU1) (Q9BWU1 whole entry): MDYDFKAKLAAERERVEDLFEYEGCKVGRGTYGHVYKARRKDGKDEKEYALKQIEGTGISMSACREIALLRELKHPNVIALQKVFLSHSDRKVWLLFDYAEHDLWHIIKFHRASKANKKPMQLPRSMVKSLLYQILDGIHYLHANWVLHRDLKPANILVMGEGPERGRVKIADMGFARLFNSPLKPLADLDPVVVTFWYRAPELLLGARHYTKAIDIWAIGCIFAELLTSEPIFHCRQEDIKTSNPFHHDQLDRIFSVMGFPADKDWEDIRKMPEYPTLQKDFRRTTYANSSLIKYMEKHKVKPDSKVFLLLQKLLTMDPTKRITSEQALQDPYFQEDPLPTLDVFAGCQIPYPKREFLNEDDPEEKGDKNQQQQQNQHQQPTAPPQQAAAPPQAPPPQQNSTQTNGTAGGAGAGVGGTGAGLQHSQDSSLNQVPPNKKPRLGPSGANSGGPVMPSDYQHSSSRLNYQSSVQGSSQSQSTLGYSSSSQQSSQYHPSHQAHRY
Chain of kinases (KINOMEscan panel) (Homo sapiens, UniProt P50750) (P50750 whole entry): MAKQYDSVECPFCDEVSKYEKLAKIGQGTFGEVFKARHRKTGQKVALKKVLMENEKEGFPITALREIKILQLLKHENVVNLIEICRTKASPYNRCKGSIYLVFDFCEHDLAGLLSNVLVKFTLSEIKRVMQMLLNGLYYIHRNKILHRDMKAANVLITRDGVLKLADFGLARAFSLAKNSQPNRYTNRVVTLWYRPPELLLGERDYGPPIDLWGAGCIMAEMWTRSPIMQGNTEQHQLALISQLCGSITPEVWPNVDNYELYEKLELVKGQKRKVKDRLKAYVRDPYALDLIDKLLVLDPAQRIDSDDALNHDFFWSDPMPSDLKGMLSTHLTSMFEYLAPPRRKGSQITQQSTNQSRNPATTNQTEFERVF

Row | SMILES | KINOMEscan ACVR1B (ACVR1B) | KINOMEscan CDK19 [1] | KINOMEscan EGFR(L858R,T790M) [2] | KINOMEscan CDK3 [3] | KINOMEscan JAK2(JH1domain-catalytic) [4] | KINOMEscan CDK9 [5] | KINOMEscan RAF1 [6] | KINOMEscan AXL [7] | KINOMEscan CDK2 [8] | KINOMEscan PKMYT1 [9] | KINOMEscan ALK(C1156Y) [10] | KINOMEscan WEE2 [11] | KINOMEscan ROCK1 [12] | KINOMEscan DYRK1B [13] | KINOMEscan ERN1 [14] | KINOMEscan ACVR1B (ACVR1B; ACVR1B, NEW KINOMEscan)
1 | Cc1cccc(-c2nc(Nc3ccc4nn(C)cc4c3)c3ccccc3n2)n1 [NK167] | 20 | 24 | 0 | 0 | 0 | 8 | 4 | 0 | 0 | 0 | 11 | 0 | 0 | 12 | 0 | –
2 | Cc1cccc(-c2nc(N(C)c3ccc4ncsc4c3)c3ccccc3n2)n1 [NK-161] | – | 4 | 10 | 0 | 0 | 4 | 0 | 0 | 0 | 0 | 2 | 5 | 12 | 16 | 11 | 28
